PMC11606603, “The membrane domains of mammalian adenylyl cyclases are lipid receptors” (eLife, 2024)
pEC50, pIC50: −log10 of the molar value. Several values for one entry are separate records, joined by “and”; a condition that tells them apart may be missing. Equal values may be shown once.

What was measured:
[1] = system: mAC1-C1/mAC2-C2; experiment: AC assay, Gsα-stimulated soluble catalytic dimer; assay type: biochemical
Description: (§1) In a volume of 10 μl, AC activities were measured using 1 mM ATP, 2 mM MgCl2, 3 mM creatine phosphate, 60 μg/ml creatine kinase, and 50 mM MOPS pH 7.5. The cAMP assay kit from Cisbio (Codolet, France) was used for detection according to the supplier’s instructions. For each assay, a cAMP standard curve was established. EC50 and IC50 values were calculated by GraphPad Prism version 8.4.3 for Windows, GraphPad Software, San Diego, CA, USA, https://www.graphpad.com .

[2] = system: mAC activity in brain cortical membranes; experiment: AC assay, Gsα-stimulated brain cortical membranes; assay type: biochemical, mouse
Description: hAC sequences were from NCBI were: ADCY1: NM_021116.3; ADCY2: NM_020546.2; ADCY3: NM_004036.4; ADCY4: NM_001198568.2; ADCY5: NM_183357.2; ADCY6: NM_015270.4; ADCY7: NM_001114.4; ADCY8: NM_001115.2; ADCY9: NM_001116.3. Human mAC genes were from GenScript and fitted with a C-terminal FLAG-tag. […] The gene was synthesized by GenScript. HEK293 cells were maintained in Dulbeccos Modified Eagle Medium (DMEM) with 10% fetal bovine serum at 37°C and 5% CO2. Transfection with AC plasmids was with PolyJet (SignaGen, Frederick, MD, USA). Permanent cell lines were generated by selection for 7 days with 600 µg/ml G418 and maintained with 300 µg/ml For membrane preparation, cells were tyrpsinized, collected by centrifugation (3000 × g, 5 min) and lysed and homogenized in 20 mM HEPES, pH 7.5, 1 mM Ethylenediaminetetraacetic acid (EDTA), 2 mM MgCl2, 1 mM Dithiothreitol (DTT), one tablet of cOmplete, EDTA-free (per 50 ml) and 250 mM sucrose by 20 strokes in a potter homogenizer on ice. Debris was removed (5 min at 1000 × g, 0°C), membranes were collected at 100,000 × g, 60 min at 0°C, suspended and stored at −80°C in 20 mM MOPS, pH 7.5, 0.5 mM EDTA, 2 mM MgCl2. […] Three cerebral cortices were dissected and homogenized in 4.5 ml cold 48 mM Tris–HCl, pH 7.4, 12 mM MgC1_2, and 0.1 mM Ethylene glycol-bis(β-aminoethyl ether)-N,N,N′,N′-tetraacetic acid (EGTA) with a Polytron hand disperser (Kinematica AG, Switzerland). […] The pellet was washed once with 5 ml 1 mM KHCO3. The final suspension in 2 ml 1 mM KHCO3 was stored in aliquots at −80°C.
as §1

[3] = target: T1, mAC7 (Homo sapiens, UniProt P51828); experiment: AC assay, Gsα-stimulated mAC7 in membranes from transfected HEK293 cells; assay type: biochemical
T1 construct: Human mAC genes were from GenScript and fitted with a C-terminal FLAG-tag; FLAG (C); made in house; host or cells: HEK293, permanently transfected; membrane preparation
T1 sequence (P51828 whole entry): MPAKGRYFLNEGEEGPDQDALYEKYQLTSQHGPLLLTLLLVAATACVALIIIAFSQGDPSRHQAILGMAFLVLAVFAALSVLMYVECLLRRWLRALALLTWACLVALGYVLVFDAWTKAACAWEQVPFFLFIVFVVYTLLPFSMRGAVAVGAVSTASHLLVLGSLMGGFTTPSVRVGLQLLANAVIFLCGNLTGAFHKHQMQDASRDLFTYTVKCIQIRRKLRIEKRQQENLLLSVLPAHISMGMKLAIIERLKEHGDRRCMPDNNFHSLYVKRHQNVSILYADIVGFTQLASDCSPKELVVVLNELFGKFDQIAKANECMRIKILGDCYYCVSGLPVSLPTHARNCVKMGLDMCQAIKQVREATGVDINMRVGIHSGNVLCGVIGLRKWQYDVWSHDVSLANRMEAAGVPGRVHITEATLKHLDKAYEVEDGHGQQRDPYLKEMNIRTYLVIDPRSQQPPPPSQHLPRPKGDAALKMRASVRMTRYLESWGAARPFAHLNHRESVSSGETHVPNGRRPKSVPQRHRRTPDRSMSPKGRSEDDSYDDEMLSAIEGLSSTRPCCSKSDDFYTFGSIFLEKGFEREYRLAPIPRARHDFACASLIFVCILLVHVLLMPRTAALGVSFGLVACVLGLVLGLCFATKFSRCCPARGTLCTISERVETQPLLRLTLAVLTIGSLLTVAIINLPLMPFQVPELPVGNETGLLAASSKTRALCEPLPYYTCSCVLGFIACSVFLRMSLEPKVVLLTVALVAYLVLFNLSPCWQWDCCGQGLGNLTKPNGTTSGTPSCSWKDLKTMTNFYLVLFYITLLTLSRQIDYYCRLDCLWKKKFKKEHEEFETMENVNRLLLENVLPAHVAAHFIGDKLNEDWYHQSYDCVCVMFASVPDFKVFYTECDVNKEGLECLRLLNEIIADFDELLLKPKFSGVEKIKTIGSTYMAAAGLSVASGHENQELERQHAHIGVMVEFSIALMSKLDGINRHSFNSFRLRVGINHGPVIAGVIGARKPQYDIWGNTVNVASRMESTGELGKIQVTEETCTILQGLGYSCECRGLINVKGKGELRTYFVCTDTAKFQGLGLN
T1 sequence (P63092 2-394 Q227L partner): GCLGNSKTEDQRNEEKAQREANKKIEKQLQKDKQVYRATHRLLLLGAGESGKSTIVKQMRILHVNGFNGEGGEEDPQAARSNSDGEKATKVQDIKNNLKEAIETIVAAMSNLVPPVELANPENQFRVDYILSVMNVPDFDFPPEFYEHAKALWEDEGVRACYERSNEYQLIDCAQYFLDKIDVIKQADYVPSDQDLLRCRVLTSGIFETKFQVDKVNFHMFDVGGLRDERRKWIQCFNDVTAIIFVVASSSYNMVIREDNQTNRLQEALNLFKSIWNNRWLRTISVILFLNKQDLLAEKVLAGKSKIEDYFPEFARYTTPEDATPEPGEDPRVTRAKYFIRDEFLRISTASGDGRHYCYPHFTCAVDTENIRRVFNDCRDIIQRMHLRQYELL
Procedure, shortened: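 cAMP formation was quantified by HTRF against a cAMP standard curve, with EC50 or IC50 derived by curve fitting. Reactions contained 1 mM ATP, 2 mM MgCl2, 3 mM creatine phosphate, 60 μg/ml creatine kinase and 50 mM MOPS pH 7.5, using membranes of stably transfected HEK293 cells carrying FLAG-tagged human AC.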

[4] = target: T2, HEK-mAC1 (Homo sapiens, UniProt Q08828); experiment: cAMP accumulation assay, isoproterenol-stimulated HEK-mAC1 cells; assay type: cell-based; settings: for cAMP level (%); 100%= 10µM Isoproterenol stimulation: single experiments
T2 construct: Human mAC genes were from GenScript and fitted with a C-terminal FLAG-tag; FLAG (C); expressed in transfected cells; host or cells: HEK293, permanently transfected
T2 sequence (Q08828 whole entry): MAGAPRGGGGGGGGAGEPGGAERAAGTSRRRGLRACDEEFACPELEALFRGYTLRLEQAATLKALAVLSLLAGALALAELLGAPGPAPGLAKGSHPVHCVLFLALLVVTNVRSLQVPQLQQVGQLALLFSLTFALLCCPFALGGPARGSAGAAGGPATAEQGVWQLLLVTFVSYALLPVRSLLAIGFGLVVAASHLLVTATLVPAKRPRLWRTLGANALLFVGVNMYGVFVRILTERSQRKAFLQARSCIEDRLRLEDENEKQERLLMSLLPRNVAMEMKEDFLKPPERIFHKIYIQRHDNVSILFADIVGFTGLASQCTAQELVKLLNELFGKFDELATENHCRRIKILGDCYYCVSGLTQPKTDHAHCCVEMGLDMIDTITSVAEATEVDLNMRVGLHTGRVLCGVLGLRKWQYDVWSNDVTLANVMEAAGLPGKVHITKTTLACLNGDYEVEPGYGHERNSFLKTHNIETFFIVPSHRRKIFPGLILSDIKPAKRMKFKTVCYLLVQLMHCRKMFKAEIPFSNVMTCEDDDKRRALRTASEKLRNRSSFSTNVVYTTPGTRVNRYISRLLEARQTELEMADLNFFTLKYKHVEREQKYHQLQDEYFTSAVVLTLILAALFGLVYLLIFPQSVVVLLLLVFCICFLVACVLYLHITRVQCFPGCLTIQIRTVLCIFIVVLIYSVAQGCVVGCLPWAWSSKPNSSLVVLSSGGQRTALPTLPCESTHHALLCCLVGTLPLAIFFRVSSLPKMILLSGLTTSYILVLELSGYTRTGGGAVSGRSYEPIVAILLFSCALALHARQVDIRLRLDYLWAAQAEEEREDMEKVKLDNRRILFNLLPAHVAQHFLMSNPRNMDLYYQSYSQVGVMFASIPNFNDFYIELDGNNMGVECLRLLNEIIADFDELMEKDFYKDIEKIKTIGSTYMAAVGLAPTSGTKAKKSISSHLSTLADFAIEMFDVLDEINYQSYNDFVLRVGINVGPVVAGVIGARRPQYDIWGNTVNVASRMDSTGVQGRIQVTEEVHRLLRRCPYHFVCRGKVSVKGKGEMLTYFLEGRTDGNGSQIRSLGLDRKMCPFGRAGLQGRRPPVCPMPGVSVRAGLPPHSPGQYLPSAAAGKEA

For CCCCCCCC/C=C\CCCCCCCC(=O)O [Oleic acid, Oleic ((9Z)-octadecenoic) acid], the “AC activity (%); stimulated by 300nM Gsα, mAC1-C1/mAC2-C2” value (“AC activity (%); stimulated” below) ([1]; Oleic acid 0.3 µM) was 100%, the “AC activity (%); stimulated” value ([1]; Oleic acid 1 µM) was 93% and 84% and 72% and the “AC activity (%); stimulated” value ([1]; Oleic acid 3 µM) was 77% and 90% and 82%. The “AC activity (%); stimulated” value ([1]; Oleic acid 6 µM) was 78% and 77% and 84%, the “AC activity (%); stimulated” value ([1]; Oleic acid 10 µM) was 68% and 70% and 67% and the “AC activity (%); stimulated” value ([1]; Oleic acid 20 µM) was 74% and 77% and 65%. For the same compound, the “enhancement of Gsα-stimulated cAMP formation in cortical membranes” value ([2]; 20 µM oleic acid) was 1.5 fold, the “mAC activity [%] (100% = 300nM Gsα stimulation), mouse brain cortex” value (from here on “mAC activity [%]”) ([2]; Oleic acid 1 µM) was 78% and 93% and 114% and the “mAC activity [%]” value ([2]; Oleic acid 3 µM) was 154%. For the same compound, the “mAC activity [%]” value ([2]; Oleic acid 6 µM) was 153% and 144%, the “mAC activity [%]” value ([2]; Oleic acid 8 µM) was 173% and 146% and 174% and the “mAC activity [%]” value ([2]; Oleic acid 10 µM) was 142% and 181%. The “mAC activity [%]” value ([2]; Oleic acid 20 µM) was 187% and 161% and 140%, the pEC50 ([2]; enhancement of 300 nM Gsα-stimulated cAMP formation) was 5.30 and the “Effect of lipid on 300 nM Gsα-stimulated mAC7” value ([3]; 20 µM, in words) was “significantly enhanced”. For the same compound, the “mAC7 activity [%] (100% = 300nM Gsα stimulation)” value ([3]; Figure 5 B, oleic acid 0.3 µM) was 100% and the pEC50 ([3]; enhancement of 300 nM Gsα-stimulated activity) was 5.17.
In the case of CCCCC/C=C\C/C=C\C/C=C\C/C=C\CCCC(=O)O [Arachidonic acid, Arachidonic ((5Z,8Z,11Z,14Z)-eicosatetraenoic) acid], the pIC50 ([4]; 10 µM isoproterenol, 0.5 mM IBMX) was 9.60, the “cAMP level (%); 100%= 10µM Isoproterenol stimulation” value (shortened to “cAMP level (%)”) ([4]; HEK-mAC1, 1e-5 µM) was 113% and 69% and the “cAMP level (%)” value ([4]; HEK-mAC1, 0.0001 µM) was 98% and 73%. For the same compound, the “cAMP level (%)” value ([4]; HEK-mAC1, 0.001 µM) was 93% and 69%, the “cAMP level (%)” value ([4]; HEK-mAC1, 0.003 µM) was 61% and the “cAMP level (%)” value ([4]; HEK-mAC1, 0.006 µM) was 59%. The “cAMP level (%)” value ([4]; HEK-mAC1, 0.01 µM) was 62% and 55% and 52% and 91% and 64%, the “cAMP level (%)” value ([4]; HEK-mAC1, 0.1 µM) was 77% and 55% and 49% and 97% and 63% and the “cAMP level (%)” value ([4]; HEK-mAC1, 0.6 µM) was 47%. The “cAMP level (%)” value ([4]; HEK-mAC1, 60 µM) was 72% and 67% and 51% and 53% and 65% and the “cAMP level (%)” value ([4]; HEK-mAC1, 100 µM) was 76% and 47% and 57% and 42% and 44% and 60% and 81%.
